This is an account of results in patent US7893074B2, “2, 4-pyrimidinediamines useful in the treatment of neoplastic diseases, inflammatory and immune system disorders” (Novartis AG, priority 2003, dated 2011).

Usually IC50 stands for the concentration that inhibits the measured activity by half.

In experiment [1] the test system is Mouse mammary carcinoma 4T1 cells. The experiment is described as follows: Anchorage-independent tumor cell growth assay. The class given is cell-based. Here is the method:
Cells are cultured for 2 h and inhibitors are added at various concentrations in a final concentration of 0.1% DMSO. After 48 h, cell growth is assayed with the cell counting kit-8 (Wako Pure Chemical), which uses a water soluble tetrazolium salt WST8. Twenty μL of the reagent is added into each well and cells are further cultured for 2 h. The optical density is measured at 450 nm.

A further experiment concerns the target FAK (Mus musculus, UniProt P34152). Nature of the experiment: Phos IC50 (phosphorylation). The class given is cell-based.
Experiment [2] addresses Focal Adhesion Kinase (FAK) (Homo sapiens, UniProt Q05397). Nature of the experiment: FAK assay system (Focal Adhesion Kinase inhibition). The class given is biochemical.
The subject of the next experiment is T Cell. Nature of the experiment: T Cell Migration. The class given is cell-based.
The target in another experiment is IGF-IR (Homo sapiens, UniProt P08069). The experiment is described as follows: Cellular Capture ELISA of IGF-I induced autophosphorylation of the IGF-IR. The class given is cell-based. The following applies: read-out: IGF-1R IC50. Here is the method: In this assay the activity of the compounds of the invention against Insulin-like growth factor I (IGF-I) induced autophosphorylation of the IGF-IR is determined.
Chain of IGF-IR (P08069 31-1367): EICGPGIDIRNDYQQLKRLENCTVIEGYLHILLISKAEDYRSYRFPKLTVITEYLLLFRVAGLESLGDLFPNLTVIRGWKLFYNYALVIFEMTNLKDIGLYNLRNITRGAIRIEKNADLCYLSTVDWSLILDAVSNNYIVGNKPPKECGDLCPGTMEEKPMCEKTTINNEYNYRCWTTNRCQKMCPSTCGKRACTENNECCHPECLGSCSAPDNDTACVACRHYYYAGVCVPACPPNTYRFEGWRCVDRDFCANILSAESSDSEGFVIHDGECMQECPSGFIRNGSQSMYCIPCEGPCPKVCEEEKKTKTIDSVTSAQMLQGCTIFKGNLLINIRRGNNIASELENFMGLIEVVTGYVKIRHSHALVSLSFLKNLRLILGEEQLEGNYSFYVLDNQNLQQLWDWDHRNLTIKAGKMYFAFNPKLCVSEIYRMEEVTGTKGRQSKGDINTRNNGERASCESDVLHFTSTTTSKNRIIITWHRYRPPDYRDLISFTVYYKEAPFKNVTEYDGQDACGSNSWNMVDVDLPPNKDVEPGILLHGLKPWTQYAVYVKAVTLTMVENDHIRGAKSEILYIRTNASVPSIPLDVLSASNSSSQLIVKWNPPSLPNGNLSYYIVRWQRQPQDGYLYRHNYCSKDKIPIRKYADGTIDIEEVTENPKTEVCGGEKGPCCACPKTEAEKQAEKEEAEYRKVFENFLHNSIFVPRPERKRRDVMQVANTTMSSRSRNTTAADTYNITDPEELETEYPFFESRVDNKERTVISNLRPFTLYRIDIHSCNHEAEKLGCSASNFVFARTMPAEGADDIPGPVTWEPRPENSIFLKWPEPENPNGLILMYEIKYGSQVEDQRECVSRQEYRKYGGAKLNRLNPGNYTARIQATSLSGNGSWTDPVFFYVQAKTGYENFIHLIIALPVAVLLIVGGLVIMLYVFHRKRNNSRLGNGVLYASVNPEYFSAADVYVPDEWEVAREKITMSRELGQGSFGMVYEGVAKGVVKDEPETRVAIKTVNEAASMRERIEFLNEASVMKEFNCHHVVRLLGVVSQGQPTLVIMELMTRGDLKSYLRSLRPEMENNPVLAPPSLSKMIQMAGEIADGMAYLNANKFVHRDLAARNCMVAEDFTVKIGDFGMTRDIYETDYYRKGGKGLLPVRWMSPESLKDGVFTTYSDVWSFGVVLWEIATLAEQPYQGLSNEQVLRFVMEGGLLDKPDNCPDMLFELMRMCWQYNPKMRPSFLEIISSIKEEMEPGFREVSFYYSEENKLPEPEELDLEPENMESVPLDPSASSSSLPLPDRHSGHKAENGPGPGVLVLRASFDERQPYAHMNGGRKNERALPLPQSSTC
(ELISA stands for enzyme-linked immunosorbent assay.)

Each structure is given as a SMILES string. Where two headings read alike, the source gives them in different places.

Chain of FAK (P34152 2-1052): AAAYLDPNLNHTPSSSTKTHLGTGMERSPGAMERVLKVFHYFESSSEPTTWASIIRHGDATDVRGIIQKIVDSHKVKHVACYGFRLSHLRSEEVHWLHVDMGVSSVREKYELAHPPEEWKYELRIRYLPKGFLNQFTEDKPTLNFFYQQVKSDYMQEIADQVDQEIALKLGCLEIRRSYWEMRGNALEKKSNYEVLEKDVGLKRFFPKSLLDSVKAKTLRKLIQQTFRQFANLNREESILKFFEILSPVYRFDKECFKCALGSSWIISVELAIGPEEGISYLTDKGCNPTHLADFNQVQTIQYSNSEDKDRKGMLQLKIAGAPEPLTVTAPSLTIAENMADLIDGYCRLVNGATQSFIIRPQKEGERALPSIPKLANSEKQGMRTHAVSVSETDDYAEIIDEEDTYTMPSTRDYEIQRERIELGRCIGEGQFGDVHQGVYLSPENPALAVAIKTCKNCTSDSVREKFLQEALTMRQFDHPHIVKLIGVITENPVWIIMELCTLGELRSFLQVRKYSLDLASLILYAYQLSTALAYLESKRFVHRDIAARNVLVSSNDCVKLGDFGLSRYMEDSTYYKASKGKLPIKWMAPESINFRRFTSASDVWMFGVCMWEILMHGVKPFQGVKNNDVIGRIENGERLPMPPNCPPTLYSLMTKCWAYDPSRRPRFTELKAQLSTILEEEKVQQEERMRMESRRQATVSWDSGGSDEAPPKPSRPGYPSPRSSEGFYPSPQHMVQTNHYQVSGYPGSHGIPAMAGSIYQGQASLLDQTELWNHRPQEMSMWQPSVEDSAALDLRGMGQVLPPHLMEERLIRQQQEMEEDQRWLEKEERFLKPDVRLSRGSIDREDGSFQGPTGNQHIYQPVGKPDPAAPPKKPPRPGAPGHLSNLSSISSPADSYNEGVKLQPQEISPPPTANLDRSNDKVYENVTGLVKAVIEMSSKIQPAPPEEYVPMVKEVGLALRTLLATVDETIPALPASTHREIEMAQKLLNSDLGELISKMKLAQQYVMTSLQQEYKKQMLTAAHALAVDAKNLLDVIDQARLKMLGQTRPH
Chain of Focal Adhesion Kinase (FAK) (Q05397 384-706): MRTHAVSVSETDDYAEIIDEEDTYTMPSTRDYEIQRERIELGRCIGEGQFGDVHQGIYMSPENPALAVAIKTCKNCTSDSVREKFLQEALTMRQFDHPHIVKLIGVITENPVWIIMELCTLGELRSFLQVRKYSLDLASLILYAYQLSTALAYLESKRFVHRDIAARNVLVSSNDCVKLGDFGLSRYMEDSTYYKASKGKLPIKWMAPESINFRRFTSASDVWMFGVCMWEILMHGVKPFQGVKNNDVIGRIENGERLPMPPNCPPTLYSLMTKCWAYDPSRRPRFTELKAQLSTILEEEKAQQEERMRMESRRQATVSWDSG

Take `CNS(=O)(=O)c1ccccc1Nc1nc(Nc2cc(N3CCC(N4CCCCC4)CC3)ccc2OC)ncc1Br` [Example 3-69]: the IC50 in experiment [1] (Mus musculus, 4T1) came to 110 nM; against FAK it was 200 nM; in experiment [2] (read-out: FAK IC50) it was 4 nM; in the experiment on T Cell (T-cell), 580 nM.
As to `CNS(=O)(=O)c1ccccc1Nc1nc(Nc2ccc(N3CCN(C)CC3)cc2OC)ncc1Cl` [Example 20-6], the IC50 was 140 nM in experiment [1] (Mus musculus, 4T1); 360 nM on FAK; 5 nM in experiment [2] (read-out: FAK IC50); 49000 nM with T Cell (T-cell).
As for `COc1cc(N2CCN(C)CC2)ccc1Nc1ncc(Cl)c(Nc2ccccc2S(=O)(=O)NC(C)C)n1` [Example 19-5], the IC50 in experiment [1] worked out at 670 nM; on FAK, 200 nM; in experiment [2] (read-out: FAK IC50), 1.8 nM; in the experiment with T Cell, 70 nM.
`CNC(=O)c1ccccc1Nc1nc(Nc2ccc(N3CCOCC3)cc2OC)ncc1Cl` [Example 7A, 2-[5-Chloro-2-(2-methoxy-4-morpholin-4-yl-phenylamino)-pyrimidin-4-ylamino]-N-methyl-benzamide]: the IC50 in experiment [1] (Mus musculus, 4T1) was found to be 470 nM; against FAK, 210 nM; in the experiment on T Cell (T-cell), 40 nM.
On to `CNC(=O)c1ccccc1Nc1nc(Nc2cc(N3CCN(C(C)=O)CC3)ccc2OC)ncc1Cl` [Example 7-30], for which the IC50 in experiment [1] (Mus musculus, 4T1) was found to be 300 nM; in experiment [2] (read-out: FAK IC50), 2.1 nM; with T Cell (T-cell), 1000 nM.
`COc1cc(N2CCC[C@H](C(N)=O)C2)ccc1Nc1ncc(Cl)c(Nc2ccccc2S(=O)(=O)C(C)C)n1` [Example 28-27]: the IC50 was 420 nM in experiment [1] (Mus musculus, 4T1); 300 nM against FAK; 2.4 nM in experiment [2] (read-out: FAK IC50); 500 nM in the experiment on T Cell (T-cell).
For the compound `CNS(=O)(=O)c1ccccc1Nc1nc(Nc2ccc(N3CCN(C(C)=O)CC3)cc2OC)ncc1Br` [Example 3-46], the IC50 in experiment [1] (Mus musculus, 4T1) came to 180 nM; against FAK, 100 nM; in experiment [2] (read-out: FAK IC50), 4 nM; in the experiment on T Cell (T-cell), 300 nM.
Consider `CCCS(=O)(=O)c1ccccc1Nc1nc(Nc2ccc(N3CCN(C(C)=O)C(C)(C)C3)cc2OC)ncc1Cl` [Example 26-11], for which the 50% inhibitory concentration (IC50) in experiment [1] (Mus musculus, 4T1) is 780 nM; at FAK, 400 nM; in experiment [2] (read-out: FAK IC50), 4.4 nM; in the experiment on T Cell (T-cell), 500 nM.
For `CNC(=O)c1ccccc1Nc1nc(Nc2cc(N3CCOCC3)ccc2OC)ncc1Cl` [Example 7-6], in that order: 1090 nM, 800 nM, 17 nM and 250 nM.
Regarding `CNS(=O)(=O)c1ccccc1Nc1nc(Nc2ccc(N3CCCC(C(N)=O)C3)cc2OC)ncc1Br` (stereo not drawn) [Example 3-68], the half-maximal inhibitory concentration (IC50) in experiment [1] (Mus musculus, 4T1) is 630 nM; in experiment [2] (FAK IC50), 5.5 nM; with T Cell (T-cell), 1000 nM.
Turning to `CNS(=O)(=O)c1ccccc1Nc1nc(Nc2ccc(N3CCC(N4CCCCC4)CC3)cc2OC)ncc1Cl` [Example 20-8], the IC50 in experiment [1] came to 50 nM; in the experiment on T Cell, 290 nM.
On to `CC(C)NS(=O)(=O)c1ccccc1Nc1nc(Nc2ccc(N3CCOCC3)cc2F)ncc1Cl` [Example 19-25], for which the IC50 in experiment [1] (Mus musculus, 4T1) worked out at 490 nM; against FAK, 1000 nM; in experiment [2] (read-out: FAK IC50), 7.2 nM; on IGF-IR, 240 nM.
As for `CNS(=O)(=O)c1ccccc1Nc1nc(Nc2ccc(F)cc2OC)ncc1Br` [Example 3-80], the IC50 came to 450 nM in experiment [1] (Mus musculus, 4T1); 220 nM against FAK; 12 nM in experiment [2] (read-out: FAK IC50); 5000 nM at IGF-IR.
As to `CNS(=O)(=O)c1ccccc1Nc1nc(Nc2cc(OC)c(OC)cc2C)ncc1Cl` [Example 20-35], the IC50 in experiment [1] (Mus musculus, 4T1) was determined as 90 nM; at FAK, 90 nM; in experiment [2] (read-out: FAK IC50), 8.7 nM; on IGF-IR it was 150 nM.
Turning to `COc1cc(NCC(C)(C)CN(C)C)ccc1Nc1ncc(Cl)c(Nc2ccccc2S(=O)(=O)NC(C)C)n1` [Example 19-10], the IC50 amounted to 560 nM in experiment [1] (Mus musculus, 4T1); 60 nM against FAK; 1.3 nM in experiment [2] (read-out: FAK IC50); 1020 nM on IGF-IR.
`CNS(=O)(=O)c1ccccc1Nc1nc(Nc2cc(-c3ccc(OC)cc3)ccc2C)ncc1Br` [Example 3-25]: the IC50 in experiment [1] (Mus musculus, 4T1) worked out at 300 nM; at FAK, 300 nM; in experiment [2] (read-out: FAK IC50) it was 22 nM; on IGF-IR it was 810 nM.
Regarding `CCNC1CCN(c2ccc(Nc3ncc(Cl)c(Nc4ccccc4S(=O)(=O)NC(CC)CC)n3)c(OC)c2)C1` (stereo not drawn) [Example 23-4], the half-maximal inhibitory concentration (IC50) is 1070 nM in experiment [1] (Mus musculus, 4T1); 900 nM against FAK; 1.2 nM in experiment [2] (read-out: FAK IC50); 600 nM on IGF-IR.
For `CNC(=O)c1ccccc1Nc1nc(Nc2ccc(N3CCC(N(C)C)C3)cc2OC)ncc1Cl` (stereo not drawn) [Example 7-11], in that order: 1200 nM, 600 nM, 2.5 nM and 770 nM.
On to `COc1cc(N2CCOCC2)ccc1Nc1ncc(Br)c(Nc2ccccc2S(=O)(=O)N(C)C)n1` [Example 51, 2-[5-bromo-2-(2-methoxy-4-morpholin-4-yl-phenylamino)-pyrimidin-7-ylamino]-N,N-dimethyl-benznensulfonamide], for which the IC50 in experiment [1] (Mus musculus, 4T1) is 190 nM; on FAK, 13 nM; in experiment [2] (read-out: FAK IC50) it was 8.1 nM; on IGF-IR it was 200 nM.
With `CCC(CC)S(=O)(=O)c1ccccc1Nc1nc(Nc2ccc(N3CCOCC3)cc2OC)ncc1Cl` [Example 29-1], the IC50 was determined as 2200 nM in experiment [1] (Mus musculus, 4T1); 700 nM against FAK; 13 nM in experiment [2] (read-out: FAK IC50); 90 nM on IGF-IR.
Consider `CNS(=O)(=O)c1ccccc1Nc1nc(Nc2ccc(N3CCOCC3)cc2OC)ncc1Br` [Example 3-19, 2-[5-Bromo-2-(2-methoxy-4-morpholin-4-yl-phenylamino)-pyrimidin-4-ylamino]-N-methyl-benzenesulfonamide], for which the IC50 in experiment [1] (Mus musculus, 4T1) stood at 800 nM; on FAK, 350 nM; in experiment [2] (read-out: FAK IC50), 6.8 nM; on IGF-IR, 100 nM.
Regarding `CNS(=O)(=O)c1ccccc1Nc1nc(Nc2cc(N3CCN(C(C)=O)CC3)ccc2OC)ncc1Br` [Example 3-34], the IC50 is 240 nM in experiment [1] (Mus musculus, 4T1); 100 nM against FAK; 130 nM with T Cell (T-cell).
With `CCC(CC)NS(=O)(=O)c1ccccc1Nc1nc(Nc2ccc(N3CCN(C)CC3)cc2OC)ncc1Cl` [Example 23-2], the IC50 in experiment [1] (Mus musculus, 4T1) worked out at 400 nM; against FAK, 200 nM; in experiment [2] (read-out: FAK IC50) it was 1.5 nM; at IGF-IR it was 800 nM.
For `CNS(=O)(=O)c1ccccc1Nc1nc(Nc2ccc(OC)nc2OC)ncc1Br` [Example 3-50], in that order: 1000 nM, 120 nM, 13 nM and 1190 nM.
On to `CNS(=O)(=O)c1ccccc1Nc1nc(Nc2ccc(OC3CCN(C(C)C)C3)cc2OC)ncc1Cl` (stereo not drawn) [Example 20-28], for which the IC50 in experiment [1] (Mus musculus, 4T1) is 80 nM; at FAK, 170 nM; in experiment [2] (read-out: FAK IC50), 9.2 nM; at IGF-IR, 420 nM.
With `COc1cc(N2CCN(C3CCN(C)CC3)CC2)ccc1Nc1ncc(Cl)c(Nc2ccccc2S(=O)(=O)C(C)C)n1` [Example 28-24], the IC50 in experiment [1] (Mus musculus, 4T1) came to 90 nM; at FAK, 200 nM; in experiment [2] (read-out: FAK IC50), 2.9 nM; at IGF-IR it was 2570 nM.
For `COc1cc(N2CCOCC2)ccc1Nc1ncc(Cl)c(Nc2ccccc2S(=O)(=O)CC(C)C)n1` [Example 32-2] the same measures were 370 nM, 50 nM, 5.9 nM and 120 nM.
